We go through 2 substances from US7081568B2, “Transgenic plants expressing temporin peptides” (University of Victoria Innovation and Development …, priority 1999, dated 2006).

Where no end group is shown, it is not given here.

For one test, the system named is Erwinia carotovora. Nature of the test: Bactericidal effect of antimicrobial peptides in microtiter plates, colony count. Conditions: approximately 1×10^5 bacteria/ml, 4 hours at room temperature, plated on LB, FIG. 3. In kind it is cell-based. As for the experimental part:
The cell cultures were incubated at room temperature in the presence of indicated concentration of Dermaseptin B (DSB; 23 μg/ml, 45 μg/ml) or Temporin A (TA; 67 μg/ml, 133 μg/ml) for 4 hours, diluted and plated on LB plates. After overnight incubation at 28° C., the colonies were counted and the survival of bacteria was scored.
(§1) Bactericidal effects of antimicrobial peptides (SEQ ID NO: 34 (MRSA3) and SEQ ID NO: 28 (MRSA2)) were determined against Escherichia coli (FIG. 2) and Erwinia carolovora (FIG. 3) in microtiter plates in a final volume of 220 μl containing approximately 1×10^5 bacteria/ml and indicated concentration of antimicrobial peptides. The cell cultures were incubated at room temperature for 4 hours, diluted and plated on LB plates. After overnight incubation at 37° C. (E. coli) or 28° C. (E. carotovora) the colonies were counted and the survival of bacteria was scored.

Another test deals with Escherichia coli. The description is as above. The test is classed as cell-based. Conditions: approximately 1×10^5 bacteria/ml, 4 hours at room temperature, plated on LB, FIG. 2. On the procedure: The cell cultures were incubated at room temperature in the presence of indicated concentration of Dermaseptin B (DSB; 7 μg/ml, 30 μg/ml, and 75 μg/ml), Temporin A (TA; 75 μg/ml, 133 μg/ml, 200 μg/ml) and a combination of Temporin A and Dermaseptin B (133 μg/ml Temporin A and 30 μg/ml Dermaseptin B) for 4 hours, diluted and plated on LB plates. After overnight incubation at 37° C., the colonies were counted and the survival of bacteria was scored.
as §1

In the case of “MRSA2: mature 27 amino acid form of dermaseptin b with a 5 amino acid N-terminal extension MAMWK; called Dermaseptin B in figure legends (MAMWKDVLKKIGTVALHAGKAALGAVADTISQ; ends and bridges not checked)”, the “bactericidal effect, survival of bacteria” value in the test with Erwinia carotovora and in the test on Escherichia coli was “significant antimicrobial activity” in each case.

As to “MRSA3: mature 13 amino acid form of temporin A with a 6 amino acid N-terminal extension MASRHM; called Temporin A in figure legends (MASRHMFLPLIGRVLSGIL; ends and bridges not checked; listed as Rana temporaria)”, the “bactericidal effect, survival of bacteria” value in the test with Erwinia carotovora and in the test with Escherichia coli was “significant antimicrobial activity” in each case.
